Values quoted from earlier work as cited in US20050032782A1, “Treatment of chronic pain associated with drug or radiation therapy” (Cypress Bioscience, Inc., priority 2003, published 2005).

Biological target: NMDA receptor
Conditions: reported by Shuto et al.; read-out: IC50 value, NMDA receptor antagonistic properties

Which IC50 does the source give for CCN(CC)C(=O)C1(c2ccccc2)CC1CN (stereo not shown) [milnacipran] here?
Its IC50 is ~6.3 µM.
